Structures can show the parent of a compound that is named as a salt.
Target: NLRP3 (Homo sapiens (Human), UniProt Q96P20)
Assay: THP-1 cells pyroptosis assay (LPS + nigericin, resazurin read-out)
Format: cell-based
Conditions: 1 μg/ml LPS, 5 μM nigericin
Description: THP-1 cells (ATCC #TIB-202) were grown in RPMI containing L-glutamine (Gibco 15 #11835) supplemented with 1 mM sodium pyruvate (Sigma #S8636) and penicillin (100 units/ml)/streptomycin (0.1 mg/ml) (Sigma #P4333) in 10% Fetal Bovine Serum (FBS) (Sigma #F0804). The cells were routinely passaged and grown to confluency (˜10^6 cells/ml). On the day of the experiment, THP-1 cells were harvested and resuspended into RPMI medium (without FBS). The cells were then counted and viability (>90%) checked by Trypan blue (Sigma #T8154). Appropriate dilutions were made to give a concentration of 625,000 cells/ml. To this diluted cell solution was added LPS (Sigma #[4524) to give a 1 μg/ml Final Assay Concentration (FAC). 40μ of the final preparation was aliquoted into each well of a 96-well plate. The plate thus prepared was used for compound screening.
The following method step-by-step assay was followed for compound screening. • 1. Seed THP-1 cells (25,000 cells/well) containing 1.0 μg/ml LPS in 40μ of RPMI medium (without FBS) in 96-well, black walled, clear bottom cell culture plates coated with poly-D-lysine (VWR #734-0317) • 2. Add 5 μl compound (8 points half-log dilution, with […]) or vehicle (DMSO 0.1% FAC) to the appropriate wells • 3. Incubate for 3 hrs at 37° C. and 5% CO2 • 4. Add 5 μl nigericin (Sigma #N7143) (FAC 5 μM) to all wells • 5. Incubate for 1 hr at 37° C. and 5% CO2 • 6. At the end of the incubation period, spin plates at 300×g for 3 mins and remove supernatant • 7. Then add 50 μl of resazurin (Sigma #R7017) (FAC 100 μM resazurin in RPMI medium without FBS) and incubate plates for a further 1-2 hrs at 37° C. and 5% CO2 • 8. Plates were read in an Envision reader at Ex 560 nm and Em 590 nm • 9. IC50 data is fitted to a non-linear regression equation (log inhibitor vs response-variable slope 4-parameters)

Chain of NLRP3 (Q96P20 whole entry): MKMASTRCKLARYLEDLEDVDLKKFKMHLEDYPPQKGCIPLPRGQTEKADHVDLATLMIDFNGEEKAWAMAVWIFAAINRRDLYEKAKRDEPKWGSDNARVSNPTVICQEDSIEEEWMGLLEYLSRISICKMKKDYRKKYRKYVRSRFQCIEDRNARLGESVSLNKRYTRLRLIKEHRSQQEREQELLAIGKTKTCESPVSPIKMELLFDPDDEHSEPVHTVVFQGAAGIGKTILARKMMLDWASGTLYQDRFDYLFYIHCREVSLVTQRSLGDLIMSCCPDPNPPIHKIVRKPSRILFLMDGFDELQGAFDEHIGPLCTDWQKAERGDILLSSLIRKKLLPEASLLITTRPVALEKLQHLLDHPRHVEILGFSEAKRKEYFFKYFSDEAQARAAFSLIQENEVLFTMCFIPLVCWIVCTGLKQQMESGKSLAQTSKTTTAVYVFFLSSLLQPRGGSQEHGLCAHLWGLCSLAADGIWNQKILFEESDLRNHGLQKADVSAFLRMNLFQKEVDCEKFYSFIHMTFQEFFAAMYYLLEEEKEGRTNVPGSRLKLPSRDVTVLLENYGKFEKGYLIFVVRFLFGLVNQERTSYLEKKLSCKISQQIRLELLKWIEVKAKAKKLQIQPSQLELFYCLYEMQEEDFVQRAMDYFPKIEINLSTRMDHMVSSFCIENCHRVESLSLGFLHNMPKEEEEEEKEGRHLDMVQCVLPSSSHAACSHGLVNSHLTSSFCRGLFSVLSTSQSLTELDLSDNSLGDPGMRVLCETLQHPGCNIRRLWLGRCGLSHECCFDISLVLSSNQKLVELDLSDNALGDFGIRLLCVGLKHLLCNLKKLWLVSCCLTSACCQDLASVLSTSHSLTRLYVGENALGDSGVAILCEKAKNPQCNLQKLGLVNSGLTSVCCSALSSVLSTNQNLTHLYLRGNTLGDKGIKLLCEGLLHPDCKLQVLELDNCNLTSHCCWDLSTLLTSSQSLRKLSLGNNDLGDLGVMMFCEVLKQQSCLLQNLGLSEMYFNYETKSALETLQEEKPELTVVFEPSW

| SMILES | IC50 |
| --- | --- |
| CN(C)CCN1CC(S(=O)(=O)NC(=O)Nc2c3c(cc4c2CCC4)CCC3)C1 [Example 102, 1-(2-(Dimethylamino)ethyl)-N-((1,2,3,5,6,7-hexahydro-s-indacen-4-yl)carbamoyl)azetidine-3-sulfonamide, potassium salt] | 1 to 10 µM |
| O=C(Nc1c2c(cc3c1CCC3)CCC2)NS(=O)(=O)C1CN(Cc2ccccn2)C1 [Example 104, N-((1,2,3,5,6,7-Hexahydro-s-indacen-4-yl)carbamoyl)-1-(pyridin-2-ylmethyl)azetidine-3-sulfonamide, potassium salt] | < 1 µM |
| CSCCN1CC(S(=O)(=O)NC(=O)Nc2c3c(cc4c2CCC4)CCC3)C1 [Example 107, N-((1,2,3,5,6,7-Hexahydro-s-indacen-4-yl)carbamoyl)-1-(2-(methylthio)ethyl)azetidine-3-sulfonamide, potassium salt] | < 1 µM |
| CN1CC(N2CC(S(=O)(=O)NC(=O)Nc3c4c(cc5c3CCC5)CCC4)C2)C1 [Example 110, N-((1,2,3,5,6,7-Hexahydro-s-indacen-4-yl)carbamoyl)-1′-methyl-[1,3′-biazetidine]-3-sulfonamide, potassium salt] | 1 to 10 µM |
| C#CCCC1(CCN2CC(S(=O)(=O)NC(=O)Nc3c4c(cc5c3CCC5)CCC4)C2)N=N1 [Example 111, 1-(2-(3-(But-3-yn-1-yl)-3H-diazirin-3-yl)ethyl)-N-((1,2,3,5,6,7-hexahydro-s-indacen-4-yl)carbamoyl)azetidine-3-sulfonamide, potassium salt] | 1 to 10 µM |
| O=C(Nc1c2c(cc3c1CCC3)CCC2)NS(=O)(=O)C1CN(C2COC2)C1 [Example 116, N-((1,2,3,5,6,7-Hexahydro-s-indacen-4-yl)carbamoyl)-1-(oxetan-3-yl)azetidine-3-sulfonamide, potassium salt] | 1 to 10 µM |
| O=C(Nc1c2c(cc3c1CCC3)CCC2)NS(=O)(=O)C1CN(C2C[S+]([O-])C2)C1 (centres unmarked) [Example 117, N-((1,2,3,5,6,7-Hexahydro-s-indacen-4-yl)carbamoyl)-1-(1-oxidothietan-3-yl)azetidine-3-sulfonamide, potassium salt] | < 1 µM |
| CC1CC(N2CC(S(=O)(=O)NC(=O)Nc3c4c(cc5c3CCC5)CCC4)C2)C1 (centres unmarked) [Example 118, N-((1,2,3,5,6,7-Hexahydro-s-indacen-4-yl)carbamoyl)-1-(3-methylcyclobutyl)azetidine-3-sulfonamide, potassium salt] | < 1 µM |
| CC1(C)CC(N2CC(S(=O)(=O)NC(=O)Nc3c4c(cc5c3CCC5)CCC4)C2)C1 [Example 119, 1-(3,3-Dimethylcyclobutyl)-N-((1,2,3,5,6,7-hexahydro-s-indacen-4-yl)carbamoyl)azetidine-3-sulfonamide, potassium salt] | 1 to 10 µM |
| O=C(Nc1c2c(cc3c1CCC3)CCC2)NS(=O)(=O)C1CN(C2CS(=O)(=O)C2)C1 [Example 120, 1-(1,1-Dioxidothietan-3-yl)-N-((1,2,3,5,6,7-hexahydro-s-indacen-4-yl)carbamoyl)azetidine-3-sulfonamide, potassium salt] | 1 to 10 µM |
| Cn1ccnc1CN1CC(S(=O)(=O)NC(=O)Nc2c3c(cc4c2CCC4)CCC3)C1 [Example 123, N-((1,2,3,5,6,7-Hexahydro-s-indacen-4-yl)carbamoyl)-1-((1-methyl-1H-imidazol-2-yl)methyl)azetidine-3-sulfonamide, potassium salt] | 1 to 10 µM |
| C/C(CN1CC(S(=O)(=O)NC(=O)Nc2c3c(cc4c2CCC4)CCC3)C1)=N/O [Example 128, N-((1,2,3,5,6,7-Hexahydro-s-indacen-4-yl)carbamoyl)-1-(2-(hydroxyimino)propyl)azetidine-3-sulfonamide, potassium salt] | 1 to 10 µM |
| C[Si](C)(C)CN1CC(S(=O)(=O)NC(=O)Nc2c3c(cc4c2CCC4)CCC3)C1 [Example 136, N-((1,2,3,5,6,7-Hexahydro-s-indacen-4-yl)carbamoyl)-1-((trimethylsilyl)methyl)azetidine-3-sulfonamide, potassium salt] | 1 to 10 µM |
| CC1(CCN2CC(S(=O)(=O)NC(=O)Nc3c4c(cc5c3CCC5)CCC4)C2)N=N1 [Example 139, N-((1,2,3,5,6,7-Hexahydro-s-indacen-4-yl)carbamoyl)-1-(2-(3-methyl-3H-diazirin-3-yl)ethyl)azetidine-3-sulfonamide, potassium salt] | 1 to 10 µM |
| Cn1cc(CN2CC(S(=O)(=O)NC(=O)Nc3c4c(cc5c3CCC5)CCC4)C2)ccc1=O [Example 140, N-((1,2,3,5,6,7-Hexahydro-s-indacen-4-yl)carbamoyl)-1-((1-methyl-6-oxo-1,6-dihydropyridin-3-yl)methyl)azetidine-3-sulfonamide, potassium salt] | < 1 µM |
| O=C(Nc1c2c(cc3c1CCC3)CCC2)NS(=O)(=O)C1CN(CCC2CCOC2)C1 (centres unmarked) [Example 142, N-((1,2,3,5,6,7-Hexahydro-s-indacen-4-yl)carbamoyl)-1-(2-(tetrahydrofuran-3-yl)ethyl)azetidine-3-sulfonamide, potassium salt] | < 1 µM |
| CCN1CC(S(=O)(=O)NC(=O)Nc2c3c(cc4c2CCC4)CCC3)CC1=O (centres unmarked) [Example 147, 1-Ethyl-N-((1,2,3,5,6,7-hexahydro-s-indacen-4-yl)carbamoyl)-5-oxopyrrolidine-3-sulfonamide, potassium salt] | 1 to 10 µM |
| COC1CN(C)CC1S(=O)(=O)NC(=O)Nc1c2c(cc3c1CCC3)CCC2 (centres unmarked) [Example 149, N-((1,2,3,5,6,7-Hexahydro-s-indacen-4-yl)carbamoyl)-4-methoxy-1-methylpyrrolidine-3-sulfonamide, potassium salt] | 1 to 10 µM |
| CCN1CC(OC)C(S(=O)(=O)NC(=O)Nc2c3c(cc4c2CCC4)CCC3)C1 (centres unmarked) [Example 150, 1-Ethyl-N-((1,2,3,5,6,7-hexahydro-s-indacen-4-yl)carbamoyl)-4-methoxypyrrolidine-3-sulfonamide, potassium salt] | < 1 µM |
| CC(C)(C)[Si](C)(C)OCCN1CC(S(=O)(=O)NC(=O)Nc2c3c(cc4c2CCC4)CCC3)C1 [Example 151, 1-(2-((tert-Butyldimethylsilyl)oxy)ethyl)-N-((1,2,3,5,6,7-hexahydro-s-indacen-4-yl)carbamoyl)azetidine-3-sulfonamide, potassium salt] | < 1 µM |
| CC(C)c1cc(F)cc(-c2ccnc(C#N)c2)c1NC(=O)NS(=O)(=O)C1CN(C(C)C)C1 [Example 157, N-((2-(2-Cyanopyridin-4-yl)-4-fluoro-6-isopropylphenyl)carbamoyl)-1-isopropylazetidine-3-sulfonamide] | 1 to 10 µM |
| CC(C)c1cc(F)cc(-c2ccnc(C#N)c2)c1NC(=O)NS(=O)(=O)C1CN(C2CCC2)C1 [Example 161, N-((2-(2-Cyanopyridin-4-yl)-4-fluoro-6-isopropylphenyl)carbamoyl)-1-cyclobutylazetidine-3-sulfonamide] | 1 to 10 µM |
| CCN1CC(S(=O)(=O)NC(=O)Nc2c(-c3ccnc(C#N)c3)cc(F)cc2C(C)C)C1 [Example 165, N-((2-(2-Cyanopyridin-4-yl)-4-fluoro-6-isopropylphenyl)carbamoyl)-1-ethylazetidine-3-sulfonamide] | 1 to 10 µM |
| CCN1CC(S(=O)(=O)NC(=O)Nc2c(-c3ccnc(OC)c3)cc(F)cc2C(C)C)C1 [Example 166, 1-Ethyl-N-((4-fluoro-2-isopropyl-6-(2-methoxypyridin-4-yl)phenyl)carbamoyl)azetidine-3-sulfonamide] | 1 to 10 µM |
| CC(C)c1cc(F)cc(-c2ccnc(C#N)c2)c1NC(=O)NS(=O)(=O)C1CN(Cc2cccnc2)C1 [Example 169, N-((2-(2-Cyanopyridin-4-yl)-4-fluoro-6-isopropylphenyl)carbamoyl)-1-(pyridin-3-ylmethyl)azetidine-3-sulfonamide] | 1 to 10 µM |
| CC(C)c1cc(F)cc(-c2cccnc2)c1NC(=O)NS(=O)(=O)C1CN(C(C)C)C1 [Example 175, N-((4-Fluoro-2-isopropyl-6-(pyridin-3-yl)phenyl)carbamoyl)-1-isopropylazetidine-3-sulfonamide] | < 1 µM |
| CC(C)c1cc(F)cc(-c2cccnc2)c1NC(=O)NS(=O)(=O)C1CCN(C(C)C)CC1 [Example 176, N-((4-Fluoro-2-isopropyl-6-(pyridin-3-yl)phenyl)carbamoyl)-1-isopropylpiperidine-4-sulfonamide] | 1 to 10 µM |
| COc1cc(-c2cc(F)cc(C(C)C)c2NC(=O)NS(=O)(=O)C2CN(Cc3cccnc3)C2)ccn1 [Example 177, N-((4-Fluoro-2-isopropyl-6-(2-methoxypyridin-4-yl)phenyl)carbamoyl)-1-(pyridin-3-ylmethyl)azetidine-3-sulfonamide] | 1 to 10 µM |
| COc1cc(-c2ccc3c(c2NC(=O)NS(=O)(=O)c2ccn(C(C)C)c(=O)c2)CCC3)ccn1 [Example 179, 1-Isopropyl-N-((5-(2-methoxypyridin-4-yl)-2,3-dihydro-1H-inden-4-yl)carbamoyl)-2-oxo-1,2-dihydropyridine-4-sulfonamide, sodium salt] | < 1 µM |

Source: patent US20250115591A1, “NOVEL SULFONAMIDE CARBOXAMIDE COMPOUNDS” (INFLAZOME LIMITED, priority 2017, published 2025)
